# Laboratory results as given in patent publication US20260138957A1, “UREA-LINKED 2-AMINOIMIDAZOLE DIMER POTENTIATORS” (UNIVERSITY OF NOTRE DAME DU LAC, priority 2022, published 2026).
# Where two headings read alike, the source gives them in different places.
# What was measured:
# [1] = tested on: A. baumannii strain 5075 (AB5075); assay: Clarithromycin potentiation against AB5075 (CLR MIC in presence of adjuvant); type: cell-based, Acinetobacter baumannii; settings: for Clarithromycin (CLR) MIC / Fold Reduction of CLR MIC / CLR MIC: AB5075
# [2] = tested on: AB5075; assay: Potentiation of azithromycin, erythromycin and rifampin against AB5075; type: cell-based, Acinetobacter baumannii; settings: for activity in combination with AZM, ERM and RIF (in words): AB5075, adjuvant at ≤30% their MIC
# [3] = tested on: A. baumannii strain 5075 (AB5075); assay: Standalone MIC against AB5075 (compound or antibiotic alone); type: cell-based, Acinetobacter baumannii; settings: Acinetobacter baumannii; compound alone, AB5075
# Text: Dimers were first analyzed for standalone toxicity against AB5075.
# [4] = Plasma stability; type: in vitro ADME; settings: 4 hours
# [5] = Microsomal (metabolic) stability; type: in vitro ADME; settings: 60 minutes
# [6] = tested on: A. baumannii; assay: CLR adjuvant activity with exogenous LOS added to the media; type: cell-based, Acinetobacter baumannii; settings: LOS from AB5075 at 0.2 mg/mL or 0.5 mg/mL
# Method: First, we examined the impact that addition of MgCl2 had on activity. Divalent cations, such as Mg^2+, are known to stabilize the outer membrane of gram-negative bacteria and the activity of membrane disruptors are known to be muted/abrogated by the addition of such cations. When the media was supplemented with MgCl2 (20 mM final concentration), activity was essentially abolished. As suppression of activity could conceivably originate from either blocking the compound's mechanism of action or simply making the membrane more impermeable that leads to the inability of the compound to penetrate the outer membrane, we next studied the impact that the addition of exogenous LOS had upon activity.
# [7] = tested on: K. pneumoniae 2146; assay: Combination with RIF against K. pneumoniae 2146; type: cell-based, Klebsiella pneumoniae; settings: K. pneumoniae 2146, compared with the parent dimers
# [8] = tested on: panel of A. baumannii isolates; assay: CLR potentiation against panel of A. baumannii isolates; type: cell-based, Acinetobacter baumannii; settings: 25 AB strains, adjuvant at 10 μM (4.8 μg/mL) or less
# [9] = tested on: panel of A. baumannii isolates; assay: Standalone MIC/toxicity against panel of A. baumannii isolates; type: cell-based, Acinetobacter baumannii
# [10] = tested on: HepG2 cells; assay: Cytotoxicity, XTT assay with HepG2 cells; settings: mammalian cell toxicity; for IC50: read-out: IC50, HepG2 cells
# [11] = tested on: P. aeruginosa (PAO1); assay: Standalone MIC against PAO1; type: cell-based, Pseudomonas aeruginosa; settings: 9k alone
# [12] = tested on: red blood cells; assay: Hemolysis assay; type: cell-based; settings: 1% Triton X as 100% lysis control
# [13] = tested on: AB 5075; assay: Colistin MIC in absence or presence of compounds against AB 5075; type: cell-based, Acinetobacter baumannii
# Text: However, dropping LOS comes with fitness costs such as reduced growth rates, lower virulence, and increased sensitivity towards certain antibiotics.
# [14] = tested on: Escherichia coli (EC 25922); assay: CLR MIC in combination with 9k against EC 25922; type: cell-based
# [15] = tested on: K. pneumoniae (strain KP 2146); assay: Standalone MIC against KP 2146; type: cell-based, Klebsiella pneumoniae; settings: 9k alone
# [16] = tested on: Escherichia coli (EC 25922); assay: Standalone MIC against EC 25922; type: cell-based; settings: 9k alone, read-out: Compound MIC
# [17] = tested on: membrane integrity; assay: BacLight assay of membrane integrity; type: cell-based; settings: in comparison to untreated control
# Text: We then quantified how compound 9k impacted membrane integrity using the BacLight assay. Compound 9k had essentially no impact on the membrane in comparison to untreated control and produced a −1.2±2.2% change in membrane permeability.
# [18] = tested on: P. aeruginosa (PAO1); assay: CLR MIC in combination with 9k against PAO1; type: cell-based, Pseudomonas aeruginosa
# [19] = tested on: K. pneumoniae (strain KP 2146); assay: CLR MIC in combination with 9k against KP 2146; type: cell-based, Klebsiella pneumoniae
# [20] = tested on: AB 5075; settings: colistin alone, earlier work; cited from earlier work
# [21] = AB5075, adjuvant at 7.5 μM (3.6 μg/mL)
molecule,measurement,setting,value
Nc1nc(-c2ccc(NC(=O)Nc3ccc(-c4c[nH]c(N)n4)c(F)c3)cc2F)c[nH]1 [Compound 9a],Clarithromycin (CLR) MIC,[1]; adjuvant at 5 μM,2 µg/mL
same,Fold Reduction of CLR MIC,[1]; adjuvant at 5 μM,16 fold
same,Clarithromycin (CLR) MIC,[1]; adjuvant at 7.5 μM,0.5 µg/mL
same,Fold Reduction of CLR MIC,[1]; adjuvant at 7.5 μM,64 fold
same,Clarithromycin (CLR) MIC,[1]; adjuvant at 10 μM,0.125 µg/mL
same,Fold Reduction of CLR MIC,[1]; adjuvant at 10 μM,256 fold
same,Clarithromycin (CLR) MIC,[1]; adjuvant at 20 μM,0.0625 µg/mL
same,Fold Reduction of CLR MIC,[1]; adjuvant at 20 μM,512 fold
same,Clarithromycin (CLR) MIC,[1]; adjuvant at 30 μM,0.03125 µg/mL
same,Fold Reduction of CLR MIC,[1]; adjuvant at 30 μM,1024 fold
same,fold decrease of RIF MIC,"[2]; AB5075, adjuvant at 10 μM",32 fold
same,"activity in combination with AZM, ERM and RIF (in words)",[2],significant activity
same,MIC,[3],> 200 µM
same,plasma stability (in words),[4],steady concentration over 4 hours
same,microsomal stability (in words),[5],steady concentration over 60 minutes
same,CLR adjuvant activity with exogenous LOS (in words),[6],no loss of adjuvant activity
same,potentiation of RIF (in words),[7],greater potentiation activity at lower concentrations
same,lowering of CLR MIC values,[8],at least four-fold
same,toxicity of compound alone (in words),[9],no toxicity
Nc1nc(-c2cc(F)cc(NC(=O)Nc3cc(F)cc(-c4c[nH]c(N)n4)c3)c2)c[nH]1 [Compound 9g],CLR MIC,[1]; adjuvant at 2.5 μM,1 µg/mL
same,Fold Reduction of CLR MIC,[1]; adjuvant at 2.5 μM,32 fold
same,Clarithromycin (CLR) MIC,[1]; adjuvant at 5 μM,0.5 µg/mL
same,Fold Reduction of CLR MIC,[1]; adjuvant at 5 μM,64 fold
same,Clarithromycin (CLR) MIC,[1]; adjuvant at 7.5 μM,0.25 µg/mL
same,Fold Reduction of CLR MIC,[1]; adjuvant at 7.5 μM,128 fold
same,Clarithromycin (CLR) MIC,[1]; adjuvant at 10 μM,0.125 µg/mL
same,Fold Reduction of CLR MIC,[1]; adjuvant at 10 μM,256 fold
same,Clarithromycin (CLR) MIC,[1]; adjuvant at 20 μM,0.0625 µg/mL
same,Fold Reduction of CLR MIC,[1]; adjuvant at 20 μM,512 fold
same,Clarithromycin (CLR) MIC,[1]; adjuvant at 30 μM,≤0.0625 µg/mL
same,fold decrease of RIF MIC,"[2]; AB5075, adjuvant at 10 μM",32 fold
same,"activity in combination with AZM, ERM and RIF (in words)",[2],significant activity
same,MIC,[3],> 200 µM
same,"IC50, HepG2 cells",[10],> 256 µg/mL
same,IC50,[10],> 530 µM
same,potentiation of RIF (in words),[7],greater potentiation activity at lower concentrations
same,lowering of CLR MIC values,[8],at least four-fold
same,toxicity of compound alone (in words),[9],no toxicity
"Nc1nc(-c2ccc(NC(=O)Nc3cccc(-c4c[nH]c(N)n4)c3F)cc2F)c[nH]1 [Compound 9k, 1-(3-(2-amino-1H-imidazol-4-yl)-2-fluorophenyl)-3-(4-(2-amino-1H-imidazol-4-yl)-3-fluorophenyl)urea]",lowest concentration at which the adjuvant suppressed the clarithromycin MIC to 2.0 μg/mL,"[1]; AB5075, value in brackets",0.72 µg/mL
same,CLR MIC,[1]; adjuvant at 1.5 μM,2 µg/mL
same,Fold Reduction of CLR MIC,[1]; adjuvant at 1.5 μM,16 fold
same,CLR MIC,[1]; adjuvant at 2.5 μM,0.125 µg/mL
same,Fold Reduction of CLR MIC,[1]; adjuvant at 2.5 μM,256 fold
same,Clarithromycin (CLR) MIC,[1]; adjuvant at 5 μM,0.0625 µg/mL
same,Fold Reduction of CLR MIC,[1]; adjuvant at 5 μM,512 fold
same,Clarithromycin (CLR) MIC,[1]; adjuvant at 7.5 μM,≤0.0625 µg/mL
same,Fold Reduction of CLR MIC,[1]; adjuvant at 7.5 μM,≥512 fold
same,Clarithromycin (CLR) MIC,[1]; adjuvant at 10 μM,≤0.0625 µg/mL
same,Fold Reduction of CLR MIC,[1]; adjuvant at 10 μM,≥512 fold
same,Clarithromycin (CLR) MIC,[1]; adjuvant at 20 μM,≤0.0625 µg/mL
same,Fold Reduction of CLR MIC,[1]; adjuvant at 20 μM,≥512 fold
same,Clarithromycin (CLR) MIC,[1]; adjuvant at 30 μM,≤0.0625 µg/mL
same,Fold Reduction of CLR MIC,[1]; adjuvant at 30 μM,≥512 fold
same,Compound MIC,[11],>200 µM
same,fold decrease of RIF MIC,"[2]; AB5075, adjuvant at 5 μM (2.4 μg/mL)",32 fold
same,fold decrease of AZM MIC,[2]; [21],at least 64 fold
same,fold decrease of ERY MIC,[2]; [21],at least 64 fold
same,fold decrease of RIF MIC,"[2]; AB5075, adjuvant at 10 μM",32 fold
same,"activity in combination with AZM, ERM and RIF (in words)",[2],significant activity
same,MIC,[3],> 200 µM
same,lytic effect on red blood cells (in words),[12]; compound at 10 μM in combination with 0.0625 μg/mL clarithromycin,little to no lytic effect
same,lytic effect on red blood cells (in words),[12]; compound,little to no lytic effect
same,plasma stability (in words),[4],steady concentration over 4 hours
same,potentiation of colistin (in words),[13]; AB5075,did not potentiate the activity
same,Colistin MIC,"[13]; adjuvant at 30 μM, AB5075",2 µg/mL
same,fold potentiation of CLR,[14],at least 256 fold
same,CLR MIC + 9k,[14]; 9k at 2.5 μM,32 µg/mL
same,CLR MIC + 9k,[14]; 9k at 3.0 μM,4 µg/mL
same,CLR MIC + 9k,[14]; 9k at 3.75 μM,0.125 µg/mL
same,microsomal stability (in words),[5],steady concentration over 60 minutes
same,CLR adjuvant activity with exogenous LOS (in words),[6],no loss of adjuvant activity
same,Compound MIC,[15],>200 µM
same,MIC,[16],12.5 µM
same,IC50,[10],431 µM
same,change in membrane permeability,[17],−1.2±2.2%
same,potentiation of RIF (in words),[7],greater potentiation activity at lower concentrations
same,fold potentiation of CLR,[18],at least 256 fold
same,CLR MIC + 9k,[18]; 9k at 20 μM,4/8
same,CLR MIC + 9k,[18]; 9k at 30 μM,0.5 µg/mL
same,lowering of CLR MIC values,[8],at least four-fold
same,fold potentiation of CLR,[19],at least 256 fold
same,CLR MIC + 9k,[19]; 9k at 7.5 μM,16 µg/mL
same,CLR MIC + 9k,[19]; 9k at 10 μM,2 µg/mL
same,CLR MIC + 9k,[19]; 9k at 30 μM,1 µg/mL
colistin [reference compound],Colistin MIC,[13]; colistin alone,1 µg/mL
same,Colistin MIC,"[13]; colistin alone, AB 5075",1 µg/mL
same,Colistin MIC,[20],1 µg/mL
